Reference: the supplement of paper PMC10307832

How the values were obtained:
Experiment in all cases: relative viability (nuclei count vs DMSO), 5 days (fraction); higher = more cells survive
[1] = compound: CC1=CC(=NN1)NC2=CC(=NC(=N2)/C=C/C3=CC=CC=C3)N4CCN(CC4)C + CC1(C)CCC(c2ccc(Cl)cc2)=C(CN2CCN(c3ccc(C(=O)NS(=O)(=O)c4ccc(N[C@H](CCN5CCOCC5)CSc5ccccc5)c(S(=O)(=O)C(F)(F)F)c4)cc3)CC2)C1 [Navitoclax] (partner 0.5 µM)
Outline: (§1)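 Cells from lung cancer lines were seeded into 1536-well plates and, one day later, dosed by pin tool. Treatments were either a single drug or a fixed dose of an anchor drug with five library-drug doses (not always all listed) in √10 steps. After 5 days, nuclei were stained in a one-step fixation (final 0.05% Triton X-100, 1% formaldehyde, 1 ug/ml Hoechst) and counted on 4× images, and relative viability is the treated-to-vehicle nuclei ratio, as the median of duplicate plates.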

[2] = compound: CC1=CC(=NN1)NC2=CC(=NC(=N2)/C=C/C3=CC=CC=C3)N4CCN(CC4)C + COc1cc2c(Oc3ccc(NC(=O)C4(C(=O)Nc5ccc(F)cc5)CC4)cc3F)ccnc2cc1OCCCN1CCOCC1 [Foretinib] (partner 0.25 µM)
Outline: as §1

[3] = compound: CC1=CC(=NN1)NC2=CC(=NC(=N2)/C=C/C3=CC=CC=C3)N4CCN(CC4)C + Nc1nc2[nH]cc(CCc3ccc(C(=O)N[C@@H](CCC(=O)O)C(=O)O)cc3)c2c(=O)[nH]1 [Pemetrexed] (partner 0.2 µM)
Outline: as §1

[4] = compound: CC1=CC(=NN1)NC2=CC(=NC(=N2)/C=C/C3=CC=CC=C3)N4CCN(CC4)C + O=C(CCCCCCC(=O)Nc1ccccc1)NO [Vorinostat] (partner 1 µM)
Outline: as §1

Row | Cell Line | relative viability ([1]; first compound 0.08 µM) | relative viability ([1]; first compound 0.253 µM) | relative viability ([1]; first compound 0.8 µM) | relative viability ([1]; first compound 2.53 µM) | relative viability ([1]; first compound 8 µM) | relative viability ([2]; first compound 0.08 µM) | relative viability ([2]; first compound 0.253 µM) | relative viability ([2]; first compound 0.8 µM) | relative viability ([2]; first compound 2.53 µM) | relative viability ([2]; first compound 8 µM) | relative viability ([3]; first compound 0.08 µM) | relative viability ([3]; first compound 0.253 µM) | relative viability ([3]; first compound 0.8 µM) | relative viability ([3]; first compound 2.53 µM) | relative viability ([3]; first compound 8 µM) | relative viability ([4]; first compound 0.08 µM) | relative viability ([4]; first compound 0.253 µM) | relative viability ([4]; first compound 0.8 µM) | relative viability ([4]; first compound 2.53 µM) | relative viability ([4]; first compound 8 µM)
1 | NCI-H1755 | 0.984 | 0.98 | 0.974 | 0.504 | 0.155 | 0.9 | 0.962 | 0.866 | 0.622 | 0.297 | 0.428 | 0.381 | 0.462 | 0.32 | 0.294 | 0.682 | 0.773 | 0.651 | 0.359 | 0.209
2 | PC-14 | 0.974 | 1.01 | 0.928 | 0.324 | 0.0445 | 0.974 | 1.09 | 0.534 | 0.869 | 0.398 | 0.14 | 0.134 | 0.15 | 0.0655 | 0.0336 | 0.673 | 0.732 | 0.491 | 0.0475 | 0.041
3 | NCI-H322M | 1.18 | 1.41 | 1.09 | 0.802 | 0.318 | 0.947 | 1.03 | 0.934 | 0.363 | 0.239 | 0.615 | 0.622 | 0.616 | 0.308 | 0.273 | 0.881 | 0.948 | 0.891 | 0.31 | 0.303
4 | NCI-H1666 | 0.951 | 0.898 | 0.906 | 0.64 | 0.222 | 1.02 | 0.948 | 1 | 0.739 | 0.33 | 0.735 | 0.914 | 0.839 | 0.846 | 0.792 | 1.05 | 0.992 | 0.926 | 1.12 | 0.802
5 | A-427 | 1.04 | 1.02 | 0.991 | 0.627 | 0.164 | 0.993 | 1.06 | 0.993 | 0.586 | 0.142 | 1.06 | 1.1 | 0.97 | 0.51 | 0.202 | 0.943 | 0.904 | 0.822 | 0.334 | 0.212
6 | NCI-H1651 | 0.974 | 1.11 | 0.837 | 0.424 | 0.129 | 0.732 | 0.899 | 0.913 | 0.447 | 0.162 | 0.39 | 0.58 | 0.571 | 0.518 | 0.223 | 0.349 | 0.529 | 0.464 | 0.497 | 0.145
7 | NCI-H520 | 0.985 | 1.12 | 0.889 | 0.198 | 0.127 | 0.669 | 0.843 | 0.788 | 0.534 | 0.185 | 0.643 | 0.688 | 0.322 | 0.14 | 0.0969 | 0.7 | 0.678 | 0.415 | 0.184 | 0.14
8 | 201T | 1.2 | 1.21 | 1.19 | 1.13 | 1.12 | 1.13 | 1.32 | 1.04 | 1.02 | 0.206 | 0.31 | 0.318 | 0.376 | 0.327 | 0.298 | 1 | 1.13 | 0.997 | 0.879 | 0.449
